Results from US20120196899A1, “METHODS AND PRODUCTS FOR TREATING INFLAMMATION” (Rock Creek Pharmaceuticals, Inc., priority 2010, published 2012).
“And” between values parts separate entries of the source, which are not always exact repeats. Identical values can stand only once. “Also recorded” adds a separate entry of the source. Like-named read-outs stand apart in the source and are kept apart here.

How the values were obtained:
[1] = biological target: T1, nAChR α7 (Homo sapiens, UniProt P36544); assay: nAChR α7 channel agonist assay (FLIPR, with PNU-120596); format: cell-based; details: for Normalized % Activation: in presence of PNU-120596, 30 μM Ach + 10 μM PNU-120596 = 100%, HBPS = 0%
T1 construct: host or cells: CHO cells
T1 sequence (P36544 23-502): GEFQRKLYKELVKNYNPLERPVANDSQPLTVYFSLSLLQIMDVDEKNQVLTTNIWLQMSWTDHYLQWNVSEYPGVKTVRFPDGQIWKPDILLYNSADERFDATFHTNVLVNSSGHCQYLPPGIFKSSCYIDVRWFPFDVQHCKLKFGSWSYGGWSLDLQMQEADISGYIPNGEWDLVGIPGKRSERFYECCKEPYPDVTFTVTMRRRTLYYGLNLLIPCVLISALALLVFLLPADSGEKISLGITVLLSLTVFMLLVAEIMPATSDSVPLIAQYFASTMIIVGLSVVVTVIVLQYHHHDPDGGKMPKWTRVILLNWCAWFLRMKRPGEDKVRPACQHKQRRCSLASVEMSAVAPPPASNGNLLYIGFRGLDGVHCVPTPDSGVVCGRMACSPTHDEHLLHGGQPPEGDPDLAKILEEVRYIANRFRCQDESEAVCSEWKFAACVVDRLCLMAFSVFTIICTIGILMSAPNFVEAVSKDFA
Protocol: Therefore, the assay of agonist activity for either Ach or for the test articles was conducted in the presence of the positive allosteric modulator.

[2] = biological target: nAChR α3/β4 (Homo sapiens, UniProt P30926+P32297); details: for Normalized % Potentiation: with 10 μM Ach (= 0%), 10 μM Ach + 1 μM epibatidine = 100%
Sequence of nAChR α3/β4 (P32297 32-505): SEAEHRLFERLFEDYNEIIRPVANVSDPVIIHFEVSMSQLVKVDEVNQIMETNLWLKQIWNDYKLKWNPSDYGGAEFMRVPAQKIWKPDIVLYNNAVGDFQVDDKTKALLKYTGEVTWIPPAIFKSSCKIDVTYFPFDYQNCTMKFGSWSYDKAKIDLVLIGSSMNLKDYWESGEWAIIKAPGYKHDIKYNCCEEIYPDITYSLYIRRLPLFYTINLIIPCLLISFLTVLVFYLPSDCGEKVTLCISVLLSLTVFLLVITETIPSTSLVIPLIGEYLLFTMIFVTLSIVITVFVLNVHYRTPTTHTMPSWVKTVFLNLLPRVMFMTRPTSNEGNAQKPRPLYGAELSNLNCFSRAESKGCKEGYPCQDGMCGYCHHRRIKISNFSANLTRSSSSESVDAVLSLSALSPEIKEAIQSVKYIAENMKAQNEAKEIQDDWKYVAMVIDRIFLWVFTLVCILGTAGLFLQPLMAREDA
Sequence of nAChR α3/β4 (P30926 22-498): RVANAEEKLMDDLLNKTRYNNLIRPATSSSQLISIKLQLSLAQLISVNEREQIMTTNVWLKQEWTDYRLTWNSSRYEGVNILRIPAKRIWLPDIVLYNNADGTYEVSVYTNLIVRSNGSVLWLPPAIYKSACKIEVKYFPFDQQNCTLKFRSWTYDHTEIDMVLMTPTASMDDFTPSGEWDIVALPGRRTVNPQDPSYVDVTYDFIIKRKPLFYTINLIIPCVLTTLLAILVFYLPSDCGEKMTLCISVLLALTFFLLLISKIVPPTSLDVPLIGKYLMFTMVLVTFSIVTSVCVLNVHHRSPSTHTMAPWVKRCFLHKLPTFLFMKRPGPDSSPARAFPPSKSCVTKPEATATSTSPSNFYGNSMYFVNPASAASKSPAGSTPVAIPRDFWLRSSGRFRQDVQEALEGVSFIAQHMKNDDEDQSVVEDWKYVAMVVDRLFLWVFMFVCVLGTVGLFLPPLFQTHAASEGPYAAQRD
Protocol: HEK293 or CHO cells were transiently or stably transfected with the appropriate human ion channel cDNAs. Stable transfectants were selected by coexpression with the antibiotic-resistance gene(s) incorporated into the expression plasmid(s). Selection pressure was maintained by including selection antibiotics in the culture medium. HEK293 cells were cultured in Dulbecco's Modified Eagle Medium/Nutrient Mixture F-12 (D-MEM/F-12) supplemented with 10% fetal bovine serum, 100 U/mL penicillin G sodium, 100 g/mL streptomycin sulfate and appropriate selection antibiotics. CHO cells were cultured in Ham's F-12 supplemented with 10% fetal bovine serum, 100 U/mL penicillin G sodium, 100 g/mL streptomycin sulfate and appropriate selection antibiotics.
For FLIPR TETRA™ assay, cells were plated in 384-well black wall, flat clear bottom microtiter plates (Type: BD Biocoat Poly-D-Lysine Multiwell Cell Culture Plate) at 20,000 to 30,000 cells per well (384-well plate). Cells were incubated at 37° C. overnight or until the cells reached a sufficient density in the wells (near confluent monolayer) to use in fluorescence assays. For α4β2 assay, cells were incubated at 27° C. for at least 7 hours before use.
Experiments were performed with either the FLIPR calcium sensitive dye kit (Fluo-8, ABDbioquest, for nAChR α3/β4 and nAChR α7) or FLIPR membrane potential kit (Molecular Devices, for nAChR α4/β2) according to the manufacturer's instructions. Briefly, cells were incubated with 201 dye for 30 min at 37° C. After dye loading period, for the agonist assay, 5 μl of the test, vehicle, or control articles at concentration of 5 times of final concentration were applied to the cells without stimulation. For the positive allosteric modulation (PAM) and antagonist assay, after test article application, the cells were stimulated with either low dose (for PAM) or high dose (for antagonist) of Ach.
The signal elicited in the presence of the positive control agonist and allosteric modulator (10 μM Ach+1 μM epibatidine) was set to 100% and the signal from the agonist control (10 μM Ach) was set to 0%.

[3] = tested on: TNFα-induced NFκB activity; assay: NFκB luciferase assay (inhibition of TNFα-induced NFκB activity) in HEK293 reporter cells; format: cell-based, Human; details: HEK293 reporter cells challenged with TNFα for three hours
Protocol: The smokeless tobacco used in these experiments was plain long-leaf Copenhagen tobacco purchased from a local vendor. Crude extract was extracted with methanol and water and clarified by centrifugation and filtration. The alkaloid extract was prepared from sodium hydroxide and methanol extraction, organic phase separation and purification. All treatment samples were prepared as a function of weight (μg/ml), and all samples were diluted in DMSO.
Human […] kidney cells (HEK293) transfected with an NFκB luciferase reporter were challenged with TNFα for three hours, then samples were applied to the challenged cells.

[4] = Hematology, day 15; format: in vivo, Sprague-Dawley rats; details: for EOSINOPHIL / HCT / HGB / LYMPHOCYTE / MCH / MCHC / MCV / MONOCYTE / NEUTROPHIL SEG / PLATELET COUNT / RBC / RE[…] / WBC: 0.75 mg/kg, group mean
From the text: (§1) On day 15, urine was collected on all surviving animals for urinalysis. The animals were euthanized and bled via cardiac puncture. Blood was collected for hematology, clinical chemistry, and coagulation analysis. Tissues were collected, weighed, and stored in 10% neutral-buffered formalin for possible future analysis.

[5] = Necropsy observations and organ weights, day 15; format: in vivo, Sprague-Dawley rats
Protocol: Body weight and food consumption was measured daily for 14 days. On day 15, urine was collected on all surviving animals. The animals were euthanized and bled via cardiac puncture, and blood was collected for analysis. Tissues were collected, weighed, evaluated for gross abnormalities, and stored in 10% neutral-buffered formalin.
as §1

[6] = Urinalysis, day 15; format: in vivo, Sprague-Dawley rats; details: Dose is 0.75 mg/kg nicotine
From the text: as §1
There were no notable differences between the active treatment groups and controls and the observations are all consistent with those expected for this species.

[7] = Group E, 0.75 mg/kg, females, individual animals, tartrate, 0.75 mg/kg
[8] = Group E, 0.75 mg/kg, males, individual animals, tartrate, 0.75 mg/kg
[9] = female animals, 0.75 mg/kg, group mean
[10] = nicotine 0.75 mg/kg single i.v., male rats
[11] = individual animals E1-E10 (M and F)
[12] = individual animals E1-E10 (M and F), tartrate, 0.75 mg/kg

For `C1=CCC(c2cccnc2)NC1` (racemic) [Anatabine (racemate)], the “Normalized % Activation” value ([1]; test conc 0.3 μM) was −1.81%, the “Normalized % Activation” value ([1]; test conc 1 μM) was 0.34% and the “Normalized % Activation” value ([1]; test conc 3 μM) was 0.78%. The “Normalized % Activation” value ([1]; test conc 10 μM) was 1.65%, the “Normalized % Activation” value ([1]; test conc 30 μM) was 2.27% and the “Normalized % Activation” value ([1]; test conc 100 μM) was 5.69%. For the same compound, the “Normalized % Activation” value ([1]; test conc 300 μM) was 14.45%, the “Normalized % Activation” value ([1]; test conc 1000 μM) was 60.41% and the “Normalized % Potentiation” value ([2]; test conc 0.3 μM) was −1.98%. The “Normalized % Potentiation” value ([2]; test conc 1 μM) was −4.08%, the “Normalized % Potentiation” value ([2]; test conc 3 μM) was −2.88% and the “Normalized % Potentiation” value ([2]; test conc 10 μM) was −3.20%. The “Normalized % Potentiation” value ([2]; test conc 30 μM) was −8.50%, the “Normalized % Potentiation” value ([2]; test conc 100 μM) was −9.46% and the “Normalized % Potentiation” value ([2]; test conc 300 μM) was −9.38%. The “Normalized % Potentiation” value ([2]; test conc 1000 μM) was −9.17%.
With `CN1CCCC1c1cccnc1.O=C(O)C(O)C(O)C(=O)O` (single isomer, unassigned; (-)) [Nicotine, (−) Nicotine hydrogen tartrate, reference compound] the “TNFα-induced NFκB-mediated transcription of luciferase” value [3] was “reduce TNFα-induced NFκB-mediated transcription”, the EOSINOPHIL ([4]; female) was 0.0% and the HCT ([4]; female) was 46.7%. For the same compound, the HGB ([4]; female) was 16.0 g/dL, the LYMPHOCYTE ([4]; female) was 86.3% and the MCH ([4]; female) was 19.9 pg. For the same compound, the MCHC ([4]; female) was 34.2%, the MCV ([4]; female) was 58.7 fL and the MONOCYTE ([4]; female) was 1.0%. For the same compound, the “NEUTROPHIL SEG” value ([4]; female) was 12.7%, the “PLATELET COUNT” value ([4]; female) was 1.363e+06 µL⁻¹ and the RBC ([4]; female) was 8e+06 µL⁻¹. The “RE[…]” value ([4]; female) was 5.1%, the WBC ([4]; female) was 10200 µL⁻¹ and the “mean corpuscular volume (MCV) and mean corpuscular hemoglobin (MCH)” value ([4]; females, anatabine […], nicotine 0.75 mg/kg single i.v.) was “small, but statistically significant decreases”. The EOSINOPHIL ([4]; male) was 0.0%, the HCT ([4]; male) was 46.6% and the HGB ([4]; male) was 15.8 g/dL. The LYMPHOCYTE ([4]; male) was 85.8%, the MCH ([4]; male) was 20.9 pg and the MCHC ([4]; male) was 34.0%. For the same compound, the MCV ([4]; male) was 61.5 fL, the MONOCYTE ([4]; male) was 2.5% and the “NEUTROPHIL SEG” value ([4]; male) was 11.8%. The “PLATELET COUNT” value ([4]; male) was 1.3558e+06 µL⁻¹, the RBC ([4]; male) was 7.6e+06 µL⁻¹ and the “RE[…]” value ([4]; male) was 5.2%. The WBC ([4]; male) was 11400 µL⁻¹, the agonist activity ([1]; with 10 μM PNU-120596, maximal stimulation not achieved) was “showed agonist activity” and the “Tissue Collection Weights: Brain” value [5, 7] was 1.77 g and 1.93 g and 1.87 g. The “Tissue Collection Weights: Heart” value [5, 7] was 1.09 g and 1.06 g and 0.83 g, the “Tissue Collection Weights: Kidneys” value [5, 7] was 2.34 g and 2.29 g (2×) and the “Tissue Collection Weights: Liver” value [5, 7] was 9.48 g and 10.11 g and 9.18 g. The “Tissue Collection Weights: Lungs” value [5, 7] was 1.20 g and 1.48 g and 1.28 g, the “Tissue Collection Weights: Ovaries/uterus” value [5, 7] was 1.59 g and 0.92 g and 1.32 g and the “Tissue Collection Weights: Small intestine” value [5, 7] was 0.41 g and 0.40 g and 0.28 g. For the same compound, the “Tissue Collection Weights: Spleen” value [5, 7] was 0.46 g (2×) and 0.76 g, the “Tissue Collection Weights: Thymus” value [5, 7] was 0.54 g and 0.48 g (2×) and the “Tissue Collection Weights: Brain” value [5, 8] was 2.06 g and 1.90 g and 1.84 g and 1.94 g. The “Tissue Collection Weights: Heart” value [5, 8] was 1.20 g and 1.17 g and 1.21 g and 1.42 g, the “Tissue Collection Weights: Kidneys” value [5, 8] was 3.19 g and 3.04 g and 2.87 g and 3.01 g and the “Tissue Collection Weights: Liver” value [5, 8] was 11.97 g and 12.52 g and 12.06 g. For the same compound, the “Tissue Collection Weights: Lungs” value [5, 8] was 1.84 g and 1.49 g and 1.62 g and 1.66 g, the “Tissue Collection Weights: Prostate” value [5, 8] was 0.41 g and 0.28 g (2×) and 0.45 g and the “Tissue Collection Weights: Small intestine” value [5, 8] was 0.71 g and 0.56 g and 0.53 g and 0.40 g. The “Tissue Collection Weights: Spleen” value [5, 8] was 0.81 g and 0.62 g and 0.78 g and 0.86 g, the “Tissue Collection Weights: Testes” value [5, 8] was 3.05 g and 3.13 g and 3.02 g and 2.92 g and the “Tissue Collection Weights: Thymus” value [5, 8] was 0.54 g and 0.46 g and 0.56 g and 0.76 g. The “Organ Weight Brain” value [5, 9] was 1.86 g, the “Organ Weight Heart” value [5, 9] was 0.99 g and the “Organ Weight Kidneys” value [5, 9] was 2.31 g. For the same compound, the “Organ Weight Liver” value [5, 9] was 9.59 g, the “Organ Weight Lungs” value [5, 9] was 1.32 g and the “Organ Weight Ovaries/uterus” value [5, 9] was 1.28 g. For the same compound, the “Organ Weight Small intestine” value [5, 9] was 0.36 g, the “Organ Weight Spleen” value [5, 9] was 0.56 g and the “Organ Weight Thymus” value [5, 9] was 0.50 g. The “Organ Weight Brain, Mean” value [5, 10] was 1.94 g, the “Organ Weight Heart, Mean” value [5, 10] was 1.25 g and the “Organ Weight Kidneys, Mean” value [5, 10] was 3.03 g. For the same compound, the “Organ Weight Liver, Mean” value [5, 10] was 12.69 g, the “Organ Weight Lungs, Mean” value [5, 10] was 1.65 g and the “Organ Weight Prostate, Mean” value [5, 10] was 0.36 g. For the same compound, the “Organ Weight Small intestine, Mean” value [5, 10] was 0.55 g, the “Organ Weight Spleen, Mean” value [5, 10] was 0.77 g and the “Organ Weight Testes, Mean” value [5, 10] was 3.03 g. For the same compound, the “Organ Weight Thymus, Mean” value [5, 10] was 0.58 g, the “Urinalysis VOLUME” value ([6]; animal E6 (F)) was 10 UL and the “Urinalysis CLARITY” value [6, 11] was “HAZY”. The “Urinalysis COLOR” value [6, 11] was “YELLOW”, the “Urinalysis GLUCOSE” value [6, 11] was “NEGATIVE” and the “Urinalysis KETONES” value [6, 11] was “NEGATIVE”. The “Urinalysis UROBILINOGEN” value [6, 11] was “NORMAL”, the “Urinalysis VOLUME” value [6, 11] was under 0.5 mL and the “Urinalysis PROTEIN” value [6, 12] was “NEGATIVE; also recorded: TRACE”. The “Urinalysis SPEC GRAVITY” value [6, 12] was 1.054 and 1.058 and 1.046 and 1.047 and 1.052, the “Urinalysis pH” value [6, 12] was 6 and 6.5 (2×) and 7 and 7.5 and the potentiation [2] was “Neither nicotine nor anatabine potentiated the activity”.
